Test results taken from patent EP4464318A1, “TARGETING TGF-B-ACTIVATED KINASE-1 ACTIVATION IN THE TREATMENT OF NEUROINFLAMMATORY CONDITIONS” (Albert-Ludwigs-Universität Freiburg, priority 2023, dated 2024).

What was measured:
TAK1 = biological target: T1, TAK1 (Homo sapiens, UniProt O43318); conditions: cited from earlier work
T1 sequence (O43318 1-606): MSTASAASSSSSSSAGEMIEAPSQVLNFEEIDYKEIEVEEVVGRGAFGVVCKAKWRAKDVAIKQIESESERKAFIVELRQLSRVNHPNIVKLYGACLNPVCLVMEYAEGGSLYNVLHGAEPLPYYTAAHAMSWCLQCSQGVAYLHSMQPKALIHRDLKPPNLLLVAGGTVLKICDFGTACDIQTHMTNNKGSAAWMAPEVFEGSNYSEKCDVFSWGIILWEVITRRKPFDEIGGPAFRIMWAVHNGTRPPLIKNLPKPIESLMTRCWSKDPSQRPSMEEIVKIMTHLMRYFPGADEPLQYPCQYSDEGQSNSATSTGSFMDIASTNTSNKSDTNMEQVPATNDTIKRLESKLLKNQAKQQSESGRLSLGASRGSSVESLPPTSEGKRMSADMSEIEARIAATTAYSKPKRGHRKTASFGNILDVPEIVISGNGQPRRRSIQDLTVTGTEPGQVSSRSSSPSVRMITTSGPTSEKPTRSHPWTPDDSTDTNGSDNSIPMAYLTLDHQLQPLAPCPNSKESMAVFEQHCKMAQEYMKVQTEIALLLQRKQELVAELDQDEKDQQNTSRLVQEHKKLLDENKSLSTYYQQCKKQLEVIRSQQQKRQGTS

[1] = system: microglia (CD45lo CD11b+); experiment: Microglial depletion: flow cytometry of CNS cells of B-ALL bearing mice; assay type: in vivo
Experimental: (§1) Mice received PLX5622 (CSF1R inhibitor) chow or control chow (Research Diets) for 7 days prior to the experiment to achieve microglial depletion. C57BI/6 mice were irradiated with 5.5 Gy and transplanted with 2×10^5 E2A-PBX1 cell lines. 10×10^6 CD19 CAR T were injected on day 7 and behaviour studies were performed on day 10. Mice were maintained on PLX5622 chow or control chow throughout the duration of the experiment. The effectiveness of microglia depletion was determined by flow cytometry.
(§2) The CNS cells were isolated as described previously (20a) with modifications. Briefly, the mice were anesthetized and were perfused with 1X cold PBS. The CNS was isolated, homogenized and filtered through a 70 µm nylon filter. The homogenate was suspended in 37% isotonic Percoll solution and centrifuged at 800 × g for 30 min without a break in application. The myelin layer was removed from the top of 37% Percoll and the pelleted cells were washed with 1X PBS for further analysis.

[2] = system: B-ALL (E2A-PBX1) bearing mice treated with CD19 CAR T cells; experiment: Elevated plus maze test; assay type: in vivo; conditions: CAR19 T cells, CSF1R inhibitor diet vs control diet, from one week prior to tumor injection (Fig. 4)
Experimental: (§3) Mice were treated with either takinib (Selleckchem, Germany) or vehicle after B-NHL or B-ALL transplantation. For the treatment, stocks of 3 mg/ml and 10 mg/ml of takinib were prepared in DMSO. The stocks were diluted in 0.5% carboxymethylcellulose solution (vehicle) and administered by intraperitoneal injection at a dosage of 0.15 mg/kg (takinib-FACS) and 0.5 mg/kg (survival and behaviour studies) per mouse per day from day 3 to day 9 following either B-NHL or B-ALL transplant, as described previously (13a). An equal volume of corresponding vehicles was administrated to the control groups daily from day 3 until day 9. For survival expriments, 0.5 mg/kg takinib or vehicle per mouse per day was administered intraperitonially from day 3 to day 11 following either B-NHL or B -ALL transplant, as described previously.
(§4) The E2A-PBX1 cell line (15a) was provided by Dr. Federico Simonetta (Stanford, USA). […] The mice were perfused with ice cold PBS on day 10 and the CNS was analysed. […]
(§5) Mice received PLX5622 (CSF1R inhibitor) chow or control chow (Research Diets) for 7 days prior to the experiment to achieve microglial depletion. […] The effectiveness of microglia depletion was determined by flow cytometry.
We performed the elevated plus maze test to evaluate the anxiety behaviour in mice as described previously with minor modifications (18a). […] We quantified the time they spent in the open arm in minutes. […]

[3] = system: B-ALL (E2A-PBX1) bearing mice treated with CD19 CAR T cells; experiment: Novel object recognition test; assay type: in vivo; conditions: CAR19 T cells, CSF1R inhibitor diet vs control diet, from one week prior to tumor injection (Fig. 4)
Experimental: as §3, with “For survival expriments, 0.5 mg/kg takinib or vehicle per mouse per day was administered intraperitonially from day 3 to day 11 following either B-NHL or B -ALL transplant, as described previously.” left out
as §4, §5
Novel object recognition test was performed as described previously with modifications (17a). […] The amount of time spent by the mouse exploring the novel object to the total exploration time is calculated as an index of recognition memory.

[4] = system: B-ALL (E2A-PBX1) bearing mice treated with CD19 CAR T cells; experiment: Grip strength test; assay type: in vivo
Experimental: as §3
(§6) The E2A-PBX1 cell line (15a) was provided by Dr. Federico Simonetta (Stanford, USA). C57BI/6 recipients were sublethally irradiated with 5.5 Gy and transplanted with 2×10^5 E2A-PBX1 cells intravenously. […] The mice were perfused with ice cold PBS on day 10 and the CNS was analysed. […]
Mice received PLX5622 (CSF1R inhibitor) chow or control chow (Research Diets) for 7 days prior to the experiment to achieve microglial depletion. […] The effectiveness of microglia depletion was determined by flow cytometry. […]

B-ALL (E2A-PBX1) = experiment: Tumor burden and myeloid cells in spleen and BM of B-ALL bearing mice on CSF1R inhibitor diet; assay type: in vivo
Experimental: as §1

[5] = system: B-ALL (E2A-PBX1) bearing mice treated with CD19 CAR T cells; experiment: BBB leakage (FITC-dextran extravasation) in the CNS; assay type: in vivo
Experimental: as §3, §6, §5

[6] = system: B-ALL (E2A-PBX1) bearing mice; experiment: Survival of B-ALL (E2A-PBX1) bearing mice that received CD19 CAR T cells; assay type: in vivo
Experimental: as §3, §4
(§7) For sample size in the murine survival experiments a power analysis was performed. A sample size of at least n=8 per group was determined by 80% power to reach a statistical significance of 0.05 in order to detect an effect size of at least 1.06. Differences in animal survival (Kaplan-Meier survival curves) were analyzed by Mantel Cox test. […]

[7] = system: microglia (CD45lo CD11b+); experiment: Flow cytometry of microglia from the CNS of B-NHL (A20) bearing mice treated with CD19 CAR T cells; assay type: in vivo
Experimental: as §3
A20 Luc^+ GFP^+ immortalized murine lymphoma cell lines were used to induce B-NHL in mice. BALB/c recipients were sublethally irradiated with 4.5 Gy and transplanted with 1×10^6 A20 Luc^+ GFP^+ intravenously. 7 days later 10×10^6 syngeneic CD19 CAR T cells generated from BALB/c mice were administered. The mice were perfused with Ice cold PBS on day 10 and CNS was analysed. For survival experiments BALB/c recipients were sublethally irradiated with 4.5 Gy and transplanted intravenously with 1×10^5 A20 Luc^+ GFP^+ cells. Seven days later 5×10^6 syngeneic CD19 CAR T cells from BALB/c mice were administered. Tumor burden was checked by bioluminescence imaging.
as §2

B-NHL (A20) cells [8] = experiment: Viability of B-NHL (A20) cells, 24h; assay type: cell-based, murine; conditions: indicated concentrations of takinib, 24h (Fig. 28a)
B-NHL (A20) bearing mice = experiment: Survival of B-NHL (A20) bearing mice that received CD19 CAR T cells; assay type: in vivo
Experimental: as §3
A20 Luc^+ GFP^+ immortalized murine lymphoma cell lines were used to induce B-NHL in mice. […] The mice were perfused with Ice cold PBS on day 10 and CNS was analysed. […]
as §7

CD19 CAR T cells = experiment: T cell markers and T cell viability in co-culture of B-NHL and NT/CD19 CAR T cells; assay type: cell-based
Experimental: (§8) B-NHL cells were labelled with cell trace violet (Invitrogen) as per the manufacturer's instructions. B-NHL cells and NT or CD19 CAR T cells were cultured with 0:1, 1:1, 1:5 and 1:10 ratios for 16-20h. Post-incubation cells were washed and stained for live dead zombie stain and specific lysis was calculated. For analyzing the expression of T cell markers, B-NHL and NT or CD19 CAR T cells were co-cultured at a ratio of 1:5 for 16-20h and treated with either 10µM of takinib or vehicle.

B-NHL (A20) = B-NHL (A20) lymphoma burden in vivo (bioluminescence, CD19+ cells in bone marrow); conditions: CAR19/takinib vs CAR19/vehicle treated mice (Fig. 8a,b)
Experimental: as §3
(§9) A20 Luc^+ GFP^+ immortalized murine lymphoma cell lines were used to induce B-NHL in mice. BALB/c recipients were sublethally irradiated with 4.5 Gy and transplanted with 1×10^6 A20 Luc^+ GFP^+ intravenously. 7 days later 10×10^6 syngeneic CD19 CAR T cells generated from BALB/c mice were administered. The mice were perfused with Ice cold PBS on day 10 and CNS was analysed. For survival experiments BALB/c recipients were sublethally irradiated with 4.5 Gy and transplanted intravenously with 1×10^5 A20 Luc^+ GFP^+ cells. […]

B-NHL (A20) cells [9] = experiment: Co-culture of B-NHL (A20) cells with NT or CD19 CAR T cells in vitro; assay type: cell-based; conditions: co-culture E:T 5:1, 10µM takinib or vehicle (Fig. 8c)
Experimental: A20 Luc^+ GFP^+ cells were stained with cell trace violet as per the manufacturer's instructions (Life Technologies). A20 Luc^+ GFP^+ cells and CD19 CAR T cells were incubated at ratios 1:1, 2:1, 5:1, and 10:1 for 16h at 37° C. Following incubation, cells were harvested and stained with live/dead far red fixable viability stain (Invitrogen).
as §8

B-ALL (E2A-PBX1) cells = experiment: Viability of B-ALL (E2A-PBX1) cells, 24h; assay type: cell-based, murine; conditions: indicated concentrations of takinib, 24h (Fig. 28b)
[10] = system: NK1.1+, CD45+, CD11b+ and CD3+ cells; experiment: Immune cell counts in spleen and BM of B-NHL (A20) bearing mice that received CD19 CAR T cells; assay type: in vivo; conditions: takinib i.p. day 3 to day 9 vs vehicle (Fig. 24, 25)
Experimental: as §3, §9

## CCCn1c(NC(=O)c2cccc(C(N)=O)c2)nc2ccc(CN3CCCCC3)cc21 [HS-276]
TAK1
  IC50: 2.3 nM
  Ki: 2.5 nM

## COc1ncc(F)cc1CNc1ccc(Cc2c[nH]c3ncc(C)cc23)c(F)n1 [PLX5622]
[1]; PLX5622 diet day -7 to day 10 vs control (Fig. 21b-d)
  microglia numbers: declined
[1]; PLX5622 diet vs control diet (Fig. 21e-g)
  CD45hi, Ly6G+ and Ly6C+ myeloid cells infiltrating the CNS: no significant changes
[2]
  neurocognitive deficits, elevated plus maze test: improved neurocognitive deficits
[3]
  neurocognitive deficits, novel object recognition test: improved neurocognitive deficits
[4]; CAR19 T cells, CSF1R inhibitor diet vs control diet (Fig. 4)
  grip strength: no difference
B-ALL (E2A-PBX1); CSF1R inhibitor diet vs control diet (Fig. 22c,d)
  Ly6C+ and F4/80+ myeloid cells in the spleen: no impact
B-ALL (E2A-PBX1); CSF1R inhibitor prior to CAR19 T cell transfer vs vehicle-treated mice (Fig. 22a,b)
  lymphoma burden in spleen and BM: did not reduce
[5]; CAR19 T cell-treated mice, CSF1R inhibitor (PLX5622) diet vs control diet (Fig. 23)
  BBB leakage: did not reduce

## COCCN1CCN(Cc2ccc(-c3n[nH]c4c3C(=O)c3c(NC(=O)NN5CCOCC5)cccc3-4)cc2)CC1 [RGB-286638 free base]
TAK1
  IC50: 5 nM

## CCCn1/c(=N/C(=O)c2cccc(C(N)=O)c2)[nH]c2ccccc21 [Takinib]
[6]; CAR19/takinib vs CAR19/vehicle, E2a-PBX1 model, 0.5 mg/kg i.p. (Fig. 8f)
  survival: increased
[7]; takinib 0.15 mg/kg per mouse per day i.p. day 3 to day 9 vs vehicle (Fig. 6b,c)
  expression of TNF in microglia: reduced expression
[7]; takinib 0.15 mg/kg per mouse per day i.p. day 3 to day 9 vs vehicle (Fig. 6f,g)
  p38 phosphorylation in microglia: reduced
[7]; takinib 0.15 mg/kg per mouse per day i.p. day 3 to day 9 vs vehicle (Fig. 6d,e)
  expression of GM-CSF in microglia: reduced expression
[7]; takinib 0.5 mg/kg per mouse per day i.p. day 3 to day 9 vs vehicle (Fig. 6h,i)
  p70s6K total protein in microglia: reduced
B-NHL (A20) cells [8]
  cell death of B-NHL (A20) cells: dose-dependent cell death
B-NHL (A20) bearing mice; CAR19/takinib vs CAR19/vehicle treated B-NHL bearing mice, 0.5 mg/kg i.p. (Fig. 8d)
  survival: survived longer
CD19 CAR T cells; CD3+ T cells, co-culture 1:5, 10µM takinib or vehicle (Fig. 29a-g)
  markers of cytotoxicity including perforin, CD107a, IFN-y, and TNF: remained unaffected
CD19 CAR T cells; co-culture with B-NHL (A20), 10µM takinib or vehicle (Fig. 29h)
  viability of CAR19 or NT T cells: remained unaffected
B-NHL (A20)
  B-NHL (A20) lymphoma burden: decreased
B-NHL (A20) cells [9]
  cytotoxicity against B-NHL (A20) in vitro: increased cytotoxicity
B-ALL (E2A-PBX1) cells
  cell death of B-ALL (E2A-PBX1) cells: dose-dependent cell death
[4]; CAR19 T cells + takinib vs vehicle (Fig. 6l)
  grip strength: no difference
[5]; B-ALL (E2A-PBX1) bearing mice after CAR19 T cell transfer, takinib vs vehicle (Fig. 6m, 26a)
  BBB leakage in the cortex: trend towards a lower BBB leakage
[10]
  myeloid cell, T cell or NK cell counts in the periphery: did not reduce

## C[C@]12C=CC(=O)C=C1CC[C@@H]1[C@@H]2[C@@H](O)C[C@@]2(C)[C@H]1CC[C@]2(O)C(=O)CO [prednisolone]
[6]; B-ALL (E2a-PBX1) bearing mice, prednisolone day 3 to day 9 (Fig. 8g)
  protective effect of CAR19 T cells against leukemia expansion: reduced
B-NHL (A20) bearing mice; B-NHL (A20) bearing mice, prednisolone day 3 to day 9 (Fig. 8e)
  protective effect of CAR19 T cells against lymphoma growth: reduced
